According to publication PMC4418694, “Crystal Structure of Fad35R from Mycobacterium tuberculosis H37Rv in the Apo-State” (PLoS ONE, 2015):

Molecular target: T1, Fad35R (Mycobacterium tuberculosis, UniProt O06169)
T1 construct: gene Rv2506
T1 sequence (O06169 entry or part of it): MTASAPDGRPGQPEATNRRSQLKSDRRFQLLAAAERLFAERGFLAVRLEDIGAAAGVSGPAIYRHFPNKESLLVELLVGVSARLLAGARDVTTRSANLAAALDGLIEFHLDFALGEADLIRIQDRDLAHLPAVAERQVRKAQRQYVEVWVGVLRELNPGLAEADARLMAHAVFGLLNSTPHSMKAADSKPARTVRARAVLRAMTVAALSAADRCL

SMILES: CN(C)[C@@H]1C(=O)C(C(N)=O)=C(O)[C@@]2(O)C(=O)C3=C(O)c4c(O)cccc4[C@@](C)(O)[C@H]3C[C@@H]12 [tetracycline]
- ligand-induced oligomerization: dynamic light scattering, size-exclusion chromat: Tc bound Fad35R has the propensity to form higher oligomers
